Data as given in patent US7759331B2, “Pyridine-containing macroheterococylic compounds as kinase inhibitors” (Janssen Pharmaceutica NV, priority 2006, dated 2010).

Key:
Test in all cases: Protein kinase selectivity panel
Type in all cases: biochemical
Settings in all cases: 1.0 μM compound, 10 μM ATP
PDK1(h) = molecular target: T1, PDK1(h) (Homo sapiens, UniProt O15530)
T1 sequence (O15530 1-556): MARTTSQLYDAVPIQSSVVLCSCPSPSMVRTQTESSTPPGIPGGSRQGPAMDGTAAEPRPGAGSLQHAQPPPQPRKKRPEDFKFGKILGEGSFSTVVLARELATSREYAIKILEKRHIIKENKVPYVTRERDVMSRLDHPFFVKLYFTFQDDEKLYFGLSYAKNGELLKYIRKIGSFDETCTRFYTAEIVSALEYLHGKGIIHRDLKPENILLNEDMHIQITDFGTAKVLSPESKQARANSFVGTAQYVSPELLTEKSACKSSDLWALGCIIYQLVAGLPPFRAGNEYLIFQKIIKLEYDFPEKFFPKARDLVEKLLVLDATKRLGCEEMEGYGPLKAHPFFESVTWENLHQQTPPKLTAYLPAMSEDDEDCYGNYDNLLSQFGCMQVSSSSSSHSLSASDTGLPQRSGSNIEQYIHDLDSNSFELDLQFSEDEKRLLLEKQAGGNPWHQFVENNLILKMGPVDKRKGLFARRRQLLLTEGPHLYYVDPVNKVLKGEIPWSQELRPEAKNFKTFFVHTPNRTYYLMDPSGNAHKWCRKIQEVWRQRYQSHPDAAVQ
Method in brief: (§1)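 At a fixed 1.0 μM compound, activity toward peptide or protein substrates was determined with ATP at 10 μM.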

Met(h) = Met(h) (Homo sapiens, UniProt P08581)
Met(h), sequence (P08581 25-1390): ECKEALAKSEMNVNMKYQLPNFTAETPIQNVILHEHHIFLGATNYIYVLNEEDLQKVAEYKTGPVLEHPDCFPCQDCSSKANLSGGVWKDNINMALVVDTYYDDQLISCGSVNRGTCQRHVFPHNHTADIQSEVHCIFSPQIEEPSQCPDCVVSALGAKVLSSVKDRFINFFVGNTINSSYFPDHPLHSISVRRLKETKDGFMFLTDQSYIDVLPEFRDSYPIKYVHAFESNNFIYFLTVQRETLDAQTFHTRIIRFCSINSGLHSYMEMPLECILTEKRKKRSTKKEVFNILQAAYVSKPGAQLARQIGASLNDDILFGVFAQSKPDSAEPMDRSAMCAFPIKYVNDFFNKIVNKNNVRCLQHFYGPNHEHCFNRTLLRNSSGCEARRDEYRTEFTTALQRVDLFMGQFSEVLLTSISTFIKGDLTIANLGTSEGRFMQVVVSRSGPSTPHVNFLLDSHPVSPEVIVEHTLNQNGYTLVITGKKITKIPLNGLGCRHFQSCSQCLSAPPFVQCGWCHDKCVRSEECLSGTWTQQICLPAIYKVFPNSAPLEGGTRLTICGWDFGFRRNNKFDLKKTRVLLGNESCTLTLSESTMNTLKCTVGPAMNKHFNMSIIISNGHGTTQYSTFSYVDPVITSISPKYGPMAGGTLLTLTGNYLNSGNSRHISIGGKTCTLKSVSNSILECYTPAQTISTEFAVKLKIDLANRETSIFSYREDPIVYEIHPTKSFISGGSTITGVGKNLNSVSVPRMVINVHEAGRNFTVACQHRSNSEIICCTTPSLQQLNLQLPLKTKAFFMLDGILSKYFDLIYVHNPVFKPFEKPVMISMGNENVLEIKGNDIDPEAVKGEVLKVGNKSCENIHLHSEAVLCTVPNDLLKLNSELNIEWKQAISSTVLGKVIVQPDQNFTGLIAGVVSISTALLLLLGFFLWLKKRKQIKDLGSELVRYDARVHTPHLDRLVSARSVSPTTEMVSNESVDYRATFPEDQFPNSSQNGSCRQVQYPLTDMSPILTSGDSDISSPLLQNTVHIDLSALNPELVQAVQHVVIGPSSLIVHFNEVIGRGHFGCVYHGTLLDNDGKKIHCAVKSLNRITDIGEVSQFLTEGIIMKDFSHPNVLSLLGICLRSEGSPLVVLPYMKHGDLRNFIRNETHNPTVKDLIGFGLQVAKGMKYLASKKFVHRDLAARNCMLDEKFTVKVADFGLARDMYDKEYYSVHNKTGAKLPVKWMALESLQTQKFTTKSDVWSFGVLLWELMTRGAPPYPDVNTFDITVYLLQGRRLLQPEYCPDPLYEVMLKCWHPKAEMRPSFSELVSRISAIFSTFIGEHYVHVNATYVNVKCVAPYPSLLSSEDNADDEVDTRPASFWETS
Method in brief: as §1

Abl(T315l)(h) = Abl(T315l)(h) (Homo sapiens, UniProt P00519, T315I)
Method in brief: as §1

MKK6(h) = molecular target: T2, MKK6(h) (Homo sapiens, UniProt P52564)
T2 sequence (P52564 1-334): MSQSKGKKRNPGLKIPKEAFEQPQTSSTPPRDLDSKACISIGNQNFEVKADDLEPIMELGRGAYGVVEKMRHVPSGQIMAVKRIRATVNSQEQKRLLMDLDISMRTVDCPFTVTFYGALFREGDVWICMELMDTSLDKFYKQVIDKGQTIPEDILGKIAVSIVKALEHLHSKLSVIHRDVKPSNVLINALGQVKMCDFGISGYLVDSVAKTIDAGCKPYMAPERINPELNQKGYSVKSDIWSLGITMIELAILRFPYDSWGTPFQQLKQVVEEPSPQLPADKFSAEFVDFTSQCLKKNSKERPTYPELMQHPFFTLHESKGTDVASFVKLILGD
Method in brief: as §1

Axl(h) = molecular target: T3, Axl(h) (Homo sapiens, UniProt P30530)
T3 sequence (P30530 26-894): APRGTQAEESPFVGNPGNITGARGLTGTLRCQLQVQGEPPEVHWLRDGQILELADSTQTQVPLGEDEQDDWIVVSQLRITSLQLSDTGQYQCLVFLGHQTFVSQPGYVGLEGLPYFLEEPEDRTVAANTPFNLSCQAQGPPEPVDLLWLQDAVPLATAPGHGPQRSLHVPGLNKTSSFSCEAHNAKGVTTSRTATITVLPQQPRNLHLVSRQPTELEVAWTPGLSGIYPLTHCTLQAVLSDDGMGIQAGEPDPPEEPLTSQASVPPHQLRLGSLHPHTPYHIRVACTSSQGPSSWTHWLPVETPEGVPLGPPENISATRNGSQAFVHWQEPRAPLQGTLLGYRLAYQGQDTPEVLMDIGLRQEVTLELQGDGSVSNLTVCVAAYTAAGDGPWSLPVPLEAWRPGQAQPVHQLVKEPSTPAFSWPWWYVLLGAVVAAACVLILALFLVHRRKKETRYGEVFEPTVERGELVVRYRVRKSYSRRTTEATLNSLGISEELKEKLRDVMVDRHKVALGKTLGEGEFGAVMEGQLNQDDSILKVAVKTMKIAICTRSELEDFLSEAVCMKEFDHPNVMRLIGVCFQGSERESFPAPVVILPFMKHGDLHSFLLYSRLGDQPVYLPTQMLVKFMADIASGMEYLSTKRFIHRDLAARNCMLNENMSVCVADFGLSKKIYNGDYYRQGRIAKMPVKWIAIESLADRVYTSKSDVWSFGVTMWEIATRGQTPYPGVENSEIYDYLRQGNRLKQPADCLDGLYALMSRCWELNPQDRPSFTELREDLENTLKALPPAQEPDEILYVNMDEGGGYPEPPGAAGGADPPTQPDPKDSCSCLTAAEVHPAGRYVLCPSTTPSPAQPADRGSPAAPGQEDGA
Method in brief: as §1

MSK1(h) = MSK1(h) (Homo sapiens, UniProt O75582)
MSK1(h), sequence (O75582 whole entry): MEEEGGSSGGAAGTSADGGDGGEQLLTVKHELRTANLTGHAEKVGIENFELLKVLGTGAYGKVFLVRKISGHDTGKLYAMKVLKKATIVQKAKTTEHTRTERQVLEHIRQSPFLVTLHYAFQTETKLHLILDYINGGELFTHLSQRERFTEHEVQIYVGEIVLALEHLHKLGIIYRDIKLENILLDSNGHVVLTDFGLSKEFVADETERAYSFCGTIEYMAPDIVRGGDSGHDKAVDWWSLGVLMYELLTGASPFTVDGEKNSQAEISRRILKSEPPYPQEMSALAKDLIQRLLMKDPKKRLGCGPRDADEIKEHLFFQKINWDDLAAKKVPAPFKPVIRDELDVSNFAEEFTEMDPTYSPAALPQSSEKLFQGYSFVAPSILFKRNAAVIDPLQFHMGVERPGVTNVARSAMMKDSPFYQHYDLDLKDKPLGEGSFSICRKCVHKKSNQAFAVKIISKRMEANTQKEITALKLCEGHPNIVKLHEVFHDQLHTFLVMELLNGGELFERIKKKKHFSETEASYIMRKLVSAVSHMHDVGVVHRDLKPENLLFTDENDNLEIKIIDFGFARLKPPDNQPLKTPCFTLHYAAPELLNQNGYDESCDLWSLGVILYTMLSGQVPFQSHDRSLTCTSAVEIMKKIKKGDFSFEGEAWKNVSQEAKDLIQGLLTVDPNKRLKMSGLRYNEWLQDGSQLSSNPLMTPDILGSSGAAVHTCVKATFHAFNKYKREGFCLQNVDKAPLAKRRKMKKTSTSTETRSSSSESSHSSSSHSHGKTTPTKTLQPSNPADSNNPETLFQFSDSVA
Method in brief: as §1

PKCε(h) = molecular target: T4, PKCε(h) (Homo sapiens, UniProt Q02156)
T4 sequence (Q02156 1-737): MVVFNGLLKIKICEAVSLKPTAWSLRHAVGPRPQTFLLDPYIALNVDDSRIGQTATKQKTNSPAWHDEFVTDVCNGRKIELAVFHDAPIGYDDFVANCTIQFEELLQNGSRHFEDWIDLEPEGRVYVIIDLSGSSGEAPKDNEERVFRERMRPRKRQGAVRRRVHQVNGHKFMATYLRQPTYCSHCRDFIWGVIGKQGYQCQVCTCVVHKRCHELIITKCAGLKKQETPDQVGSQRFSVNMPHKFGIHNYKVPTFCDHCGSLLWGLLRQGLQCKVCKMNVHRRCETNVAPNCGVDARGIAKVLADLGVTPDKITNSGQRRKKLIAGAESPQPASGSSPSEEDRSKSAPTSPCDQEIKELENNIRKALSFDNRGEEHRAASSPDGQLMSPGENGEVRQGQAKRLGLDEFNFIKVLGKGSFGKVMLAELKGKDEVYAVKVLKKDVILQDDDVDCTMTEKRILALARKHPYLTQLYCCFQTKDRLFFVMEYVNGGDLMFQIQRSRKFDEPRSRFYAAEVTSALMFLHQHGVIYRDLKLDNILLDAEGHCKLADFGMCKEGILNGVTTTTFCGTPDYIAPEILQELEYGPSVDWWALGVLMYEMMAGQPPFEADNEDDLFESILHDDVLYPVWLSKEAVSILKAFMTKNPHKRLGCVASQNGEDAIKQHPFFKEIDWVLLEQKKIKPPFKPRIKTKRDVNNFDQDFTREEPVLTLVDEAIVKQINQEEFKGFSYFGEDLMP
Method in brief: as §1

JNK2α2(h) = JNK2α2(h) (Homo sapiens, UniProt P45984)
JNK2α2(h), sequence (P45984 whole entry): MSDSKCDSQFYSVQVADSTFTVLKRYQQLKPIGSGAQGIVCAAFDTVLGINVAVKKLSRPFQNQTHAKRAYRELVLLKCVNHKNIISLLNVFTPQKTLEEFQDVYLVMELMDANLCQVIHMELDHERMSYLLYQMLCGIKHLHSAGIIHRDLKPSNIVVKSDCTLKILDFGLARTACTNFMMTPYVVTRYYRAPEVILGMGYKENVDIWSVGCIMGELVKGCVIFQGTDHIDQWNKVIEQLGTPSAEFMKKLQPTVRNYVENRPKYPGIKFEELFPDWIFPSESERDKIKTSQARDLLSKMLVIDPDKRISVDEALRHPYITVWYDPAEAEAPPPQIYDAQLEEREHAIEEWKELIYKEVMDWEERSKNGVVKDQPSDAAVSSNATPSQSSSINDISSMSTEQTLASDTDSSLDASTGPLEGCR
Method in brief: as §1

Q: For `CN(C)c1nc2ccc1CCCCn1cc(c3ccccc31)C1=C(C(=O)NC1=O)c1cn(c3ccccc13)CCC2` [Cpd 1, 31-(dimethylamino)-5,15,25,32-tetraazaheptacyclo[28.2.2.1^5,12.1^18,25.0^6,11.0^13,17.0^19,24]hexatriaconta-1(32),6,8,10,12(36),13(17),18(35),19,21,23,30,33-dodecaene-14,16-dione], which “Activity at Protein Kinase Assays (% of control), PDK1(h)” value (from here on “Activity … (% of control), PDK1(h)”) (PDK1(h)) is on record?
A: Its value is 115 % of control.

Q: What about the “Activity at Protein Kinase Assays (% of control), Met(h)” value (“Activity … (% of control), Met(h)” for short) (Met(h)) of the same molecule?
A: Its value is 121 % of control.

Q: What about the “Activity at Protein Kinase Assays (% of control), Abl(T315l)(h)” value (“Activity … (% of control), Abl(T315l)(h)” below) (Abl(T315l)(h)) of the same molecule?
A: The value was 100 % of control.

Q: And the “Activity at Protein Kinase Assays (% of control), MKK6(h)” value (from here on “Activity … (% of control), MKK6(h)”) (MKK6(h))?
A: Its value is 102 % of control.

Q: And the “Activity at Protein Kinase Assays (% of control), Axl(h)” value (“Activity … (% of control), Axl(h)” for short) (Axl(h))?
A: The value was 97 % of control.

Q: What about the “Activity at Protein Kinase Assays (% of control), MSK1(h)” value (“Activity … (% of control), MSK1(h)” below) (MSK1(h)) of the same molecule?
A: Its value is 36 % of control.

Q: And the “Activity at Protein Kinase Assays (% of control), PKCε(h)” value (“Activity … (% of control), PKCε(h)” below) (PKCε(h))?
A: Its value is 72 % of control.

Q: And the “Activity at Protein Kinase Assays (% of control), JNK2α2(h)” value (“Activity … (% of control), JNK2α2(h)” below) (JNK2α2(h))?
A: The value was 96 % of control.

Q: With `CN(C)c1cc2cc(n1)CCCn1cc(c3ccccc31)C1=C(C(=O)NC1=O)c1cn(c3ccccc13)CCC2` [Cpd 2, 20-(dimethylamino)-4,14,19,26-tetraazaheptacyclo[24.6.1.1^7,14.1^18,22.0^2,6.0^8,13.0^27,32]pentatriaconta-1(33),2(6),7(35),8,10,12,18(34),19,21,27,29,31-dodecaene-3,5-dione] as the molecule, how does the “Activity … (% of control), PDK1(h)” value (PDK1(h)) read?
A: The value was 104 % of control.

Q: What about the “Activity … (% of control), Met(h)” value (Met(h)) of the same molecule?
A: The value was 132 % of control.

Q: And the “Activity … (% of control), Abl(T315l)(h)” value (Abl(T315l)(h))?
A: The value was 79 % of control.

Q: What about the “Activity … (% of control), MKK6(h)” value (MKK6(h)) of the same molecule?
A: Its value is 86 % of control.

Q: And the “Activity … (% of control), Axl(h)” value (Axl(h))?
A: The value was 104 % of control.

Q: What about the “Activity … (% of control), MSK1(h)” value (MSK1(h)) of the same molecule?
A: The value was 58 % of control.

Q: And the “Activity … (% of control), PKCε(h)” value (PKCε(h))?
A: Its value is 83 % of control.

Q: And the “Activity … (% of control), JNK2α2(h)” value (JNK2α2(h))?
A: The value was 106 % of control.

Q: What does the source list for `O=C1NC(=O)C2=C1c1cn(c3ccccc13)CCCc1cc(nc(N3CCCC3)c1)CCCn1cc2c2ccccc21` [Cpd 6, 20-pyrrolidin-1-yl-4,14,19,26-tetraazaheptacyclo[24.6.1.1^7,14.1^18,22.0^2,6.0^8,13.0^27,32]pentatriaconta-1(33),2(6),7(35),8,10,12,18(34),19,21,27,29,31-dodecaene-3,5-dione]?
A: Activity at Protein Kinase Assays (% of control), PDK1(h) (PDK1(h)): 107 % of control; Activity at Protein Kinase Assays (% of control), Met(h) (Met(h)): 129 % of control; Activity at Protein Kinase Assays (% of control), Abl(T315l)(h) (Abl(T315l)(h)): 77 % of control; Activity at Protein Kinase Assays (% of control), MKK6(h) (MKK6(h)): 91 % of control; Activity at Protein Kinase Assays (% of control), Axl(h) (Axl(h)): 106 % of control; Activity at Protein Kinase Assays (% of control), MSK1(h) (MSK1(h)): 38 % of control; Activity at Protein Kinase Assays (% of control), PKCε(h) (PKCε(h)): 93 % of control; Activity at Protein Kinase Assays (% of control), JNK2α2(h) (JNK2α2(h)): 114 % of control

Q: Which “Activity … (% of control), PDK1(h)” value (PDK1(h)) does the source give for `O=C1NC(=O)C2=C1c1cn(c3ccccc13)CCCc1ccc(c(N3CCCC3)n1)CCCn1cc2c2ccccc21` [Cpd 7, 31-pyrrolidin-1-yl-5,15,25,30-tetraazaheptacyclo[27.2.2.1^5,12.1^18,25.0^6,11.0^13,17.0^19,24]pentatriaconta-1(31),6,8,10,12(35),13(17),18(34),19,21,23,29,32-dodecaene-14,16-dione] here?
A: Its value is 100 % of control.

Q: And the “Activity … (% of control), Met(h)” value (Met(h))?
A: The value was 132 % of control.

Q: What about the “Activity … (% of control), Abl(T315l)(h)” value (Abl(T315l)(h)) of the same molecule?
A: The value was 103 % of control.

Q: What about the “Activity … (% of control), MKK6(h)” value (MKK6(h)) of the same molecule?
A: The value was 85 % of control.

Q: And the “Activity … (% of control), Axl(h)” value (Axl(h))?
A: Its value is 100 % of control.

Q: What about the “Activity … (% of control), MSK1(h)” value (MSK1(h)) of the same molecule?
A: The value was 104 % of control.

Q: And the “Activity … (% of control), PKCε(h)” value (PKCε(h))?
A: The value was 97 % of control.

Q: What about the “Activity … (% of control), JNK2α2(h)” value (JNK2α2(h)) of the same molecule?
A: The value was 110 % of control.
